Data: ChEMBL document CHEMBL1122436, “Structure-activity studies of dermorphin. Synthesis and some pharmacological data of dermorphin and its 1-substituted analogues” (J Med Chem, 1983)

What was measured:
Format in all cases: functional
Cavia porcellus [1] = species: Cavia porcellus; assay: Inhibition of electrically evoked twitches in guinea pig ileum relative to morphine.
Mus musculus = species: Mus musculus; assay: Analgesic activity in mice by using hot plate method
Cavia porcellus [2] = species: Cavia porcellus; assay: Inhibition of twitches in guinea pig ileum

C[C@@H](NC(=O)[C@H](N)Cc1ccccc1)C(=O)N[C@@H](Cc1ccccc1)C(=O)NCC(=O)N[C@@H](Cc1ccc(O)cc1)C(=O)N1CCC[C@H]1C(=O)N[C@@H](CO)C(N)=O
Relative potency (Cavia porcellus [1]): 0.0042
ED50 (Mus musculus): >0.001 M/kg

C[C@H](N)C(=O)N[C@H](C)C(=O)N[C@@H](Cc1ccccc1)C(=O)NCC(=O)N[C@@H](Cc1ccc(O)cc1)C(=O)N1CCC[C@H]1C(=O)N[C@@H](CO)C(N)=O
Relative potency (Cavia porcellus [1]): 0.0017
ED50 (Mus musculus): 6.1e-05 M/kg

C[C@@H](NC(=O)[C@@H](N)Cc1ccccc1)C(=O)N[C@@H](Cc1ccccc1)C(=O)NCC(=O)N[C@@H](Cc1ccc(O)cc1)C(=O)N1CCC[C@H]1C(=O)N[C@@H](CO)C(N)=O
Relative potency (Cavia porcellus [1]): 0.026
ED50 (Mus musculus): 1.55e-05 M/kg

COc1ccc(C[C@H](N)C(=O)N[C@H](C)C(=O)N[C@@H](Cc2ccccc2)C(=O)NCC(=O)N[C@@H](Cc2ccc(O)cc2)C(=O)N2CCC[C@H]2C(=O)N[C@@H](CO)C(N)=O)cc1
Relative potency (Cavia porcellus [1]): 40.5
ED50 (Mus musculus): 6e-05 M/kg

CC(=O)N[C@@H](Cc1ccc(O)cc1)C(=O)N[C@H](C)C(=O)N[C@@H](Cc1ccccc1)C(=O)NCC(=O)N[C@@H](Cc1ccc(O)cc1)C(=O)N1CCC[C@H]1C(=O)N[C@@H](CO)C(N)=O
Relative potency (Cavia porcellus [1]): 0.0044
ED50 (Mus musculus): >0.001 M/kg

CSCC[C@H](NC(=O)[C@H](Cc1ccccc1)NC(=O)CNC(=O)[C@@H](C)NC(=O)[C@@H](N)Cc1ccc(O)cc1)C(N)=O
Relative potency (Cavia porcellus [1]): 30
IC50 (Cavia porcellus [2]): 2.5 nM

C[C@@H](NC(=O)[C@@H](N)Cc1ccc(O)cc1)C(=O)N[C@@H](Cc1ccccc1)C(=O)NCC(=O)N[C@@H](Cc1ccc(O)cc1)C(=O)N1CCC[C@H]1C(=O)N[C@@H](CO)C(N)=O [DERMORPHIN]
Relative potency (Cavia porcellus [1]): 1440
ED50 (Mus musculus): 9.5e-07 M/kg
IC50 (Cavia porcellus [2]): 0.052 nM

CN1CC[C@]23c4c5ccc(O)c4O[C@H]2[C@@H](O)C=C[C@H]3[C@H]1C5 [MORPHINE]
ED50 (Mus musculus): 1.7e-06 M/kg
